Assay results published in patent US9844540B2, “Combination therapies for treating cancer” (RedHill Biopharma Ltd., priority 2015, dated 2017).
Where “and” joins values, the source holds several entries; their conditions need not be identical. Equal values may be shown once. Read-outs that look alike come from different tables or passages of the source.

Assays:
[1] = test system: PANC-1 pancreatic cancer cell line; assay: In vitro cytotoxicity MTT assay, PANC-1; type: cell-based, human; conditions: 3 days
Protocol: (§1) The following experiment was performed to assess the potential of combination agents of the present disclosure for their capability of inhibiting the growth or proliferation of pancreatic cancer cells comprising contacting pancreatic cancer cells with effective amounts of the agents, alone and in combination, thereby inhibiting the growth or proliferation of the pancreatic cancer cells.
(§2) The present study investigated whether clarithromycin+rifabutin+clofazimine (“Combo”) would be synergistic with [3-(4-chlorophenyl)-adamantane-1-carboxylic acid (pyridin-4-ylmethyl)amide] (“ABC2640”) against MIA PaCa-2, PANC-1, and Hs 766T pancreatic cancer cell lines. Hs 766T is a cell line derived from the lymph node metastasis of a person with pancreas carcinoma. MIA PaCa-2 is a cell line derived from the pancreas adenocarcinoma of a person who presented with abdominal pain for 6 months and a palpable upper abdominal mass. PANC-1 was cultured from a person with an adenocarcinoma in the head of the pancreas which invaded the duodenal wall.
(§3) The MTT assay is commonly used to determine cytotoxicity of potential medicinal agents, since these types of materials are expected to stimulate or inhibit cell viability and growth. Briefly, 3,000 cells were plated/well—100 μl/well. After overnight, prior to the assay, 50 μl supernatant was removed from each well. Each drug was added at 4× of the final concentration (in 50 μl). Total volume of each well was 200 μl. 4 wells had been used as a control and contained no cells at all. The plate was developed after being incubated for 3 days at 37° C. 20 μl of Promega Substrate Cell Titer 96 Aqueous One Solution Reagent was added to each well, incubated at 37° C. and read OD at 490 nm. The MTT test is based on the enzymatic reduction of the tetrazolium salt MTT [3-(4,5-dimethylthiazol-2-yl)-2,5-diphenyl-tetrazoliumbromide^+++] in living, metabolically active cells but not in dead cells. The reaction is carried out in situ in multiwell plates, and the reaction product, a purple-colored formazan soluble in dimethylsulfoxide, is measured colorimetrically, using a multiwell plate reader.

[2] = test system: Hs 766T pancreatic cancer cell line; assay: In vitro cytotoxicity MTT assay, Hs 766T; type: cell-based, human; conditions: 3 days
Protocol: as §1, §2, §3

[3] = test system: MIA PaCa-2 pancreatic cancer cell line; assay: In vitro cytotoxicity MTT assay, MIA PaCa-2; type: cell-based, human; conditions: 3 days
Protocol: as §1, §2, §3

physchem = type: physicochemical; conditions: aqueous with cosolvent or surfactant or cyclodextrin
[4] = test system: MCF-10A non-transformed human breast epithelial cells; assay: Cytotoxicity, SRB assay, MCF-10A; type: cell-based; conditions: 48 h, SRB binding assay, read-out: IC50 (concentration that inhibited proliferation by 50%)
Protocol: (§4) To assess the biological efficacy of ABC294640 in intact cells, ABC294640 was evaluated for cytotoxicity using human cancer cell lines. These experiments followed methods that have been extensively used. Cell lines tested included MCF-7 human breast adenocarcinoma cells and MCF-10A non-transformed human breast epithelial cells. The indicated cell lines were treated with varying doses of ABC294640 for 48 h. Cell survival was then determined using the SRB binding assay (Skehan et al., 1990, J Natl Cancer Inst 82: 1107), and the concentration of ABC294640 that inhibited proliferation by 50% (the IC50) was calculated. […] ABC294640 is antiproliferative at sub-to-low-micromolar.

[5] = test system: MCF-7 human breast adenocarcinoma cells; assay: Cytotoxicity, SRB assay, MCF-7; type: cell-based; conditions: MCF7, 48 h, read-out: IC50 (concentration that inhibited proliferation by 50%)
Protocol: as §4

[6] = mouse, in vivo
Protocol: […]. […] ABC294640 could also be administered orally to mice at doses up to at least 100 mg/kg without noticeable toxicity.

[7] = test system: mouse JC mammary adenocarcinoma cell line; assay: Antitumor activity in syngeneic JC mammary adenocarcinoma model; type: in vivo, Balb/c mice
Protocol: The antitumor activity of ABC294640 was evaluated using a syngeneic tumor model that uses the mouse JC mammary adenocarcinoma cell line growing subcutaneously in immunocompetent Balb/c mice (Lee et al., 2003, Oncol Res 14: 49). These cells express elevated levels of SK activity relative to non-transformed cells, as well as the multidrug resistance phenotype due to P-glycoprotein activity.
Balb/c mice, 6-8 weeks old, were injected subcutaneously with 10^6 JC cells suspended in phosphate-buffered saline. ABC294640 was dissolved in PEG400 and administered to mice every-other day at a dose of 100 mg/kg. Body weights and tumor volumes were monitored daily. […] ABC294640 inhibited tumor growth relative to controls by 69%.

AH13r sarcoma cells = assay: BVDU and chemotherapy-induced apoptosis in AH13r sarcoma cells; type: cell-based
From the text: AH13r cells were subjected to increasing doses of the cytostatic mitomycin C (MMC). […] This inhibitory effect was maintained even after discontinuation of the cytostatic in the next cycle, in the so-called recovery phase. The cells without MMC and BVDU continued to grow without inhibition. […] The indication that the reduction in cell number is based on apoptosis, was detected by means of Hoechst 33258/propidium iodide (Hopi) double colouration.

[8] = test system: tumor cell strain F46-WT of the mouse; conditions: for formation of resistance to adriamycin: 6 to 8 weeks
Protocol: (§5) The human tumor cell strain K562-WT and the tumor cell strain F46-WT of the mouse (WT=wild type=sensitive to cytostatic treatment=no amplification of the MDR-gene) is treated over several weeks with staged increase in concentrations of adriamycin. […] The formation of resistance is based on the amplification of the MDR gene.
The tumor cell strain F4-6-WT of the mouse (WT=wild type=sensitive to cytostatic treatment=no amplification of the MDR gene) is treated over several weeks with staged increases in concentration of adriamycin. […] The formation of resistance is based on the amplification of the MDR gene. The levels of β-actin MRNA are likewise analyzed as comparison. β-actin is used as an internal control for the RNA quantity.

[9] = test system: human tumor cell strain K562-WT
Protocol: as §5

T24 (bladder) = assay: Tumor cell line panel, sulforhodamine B, T24; type: cell-based; conditions: Homo sapiens, 48 hours, mean ± sd
Protocol: (§6) To examine the range of anticancer, the chemotherapeutic potency of ABC294640 towards a panel of varied human tumor cell lines representing several major tumor types were determined. […] [table]

Hep-G2 (liver) = assay: Tumor cell line panel, sulforhodamine B, Hep-G2; type: cell-based; conditions: Homo sapiens, HepG2, 48 hours, mean ± sd
Protocol: as §6

[10] = test system: LPS-induced cytokine production; assay: LPS-induced cytokine production in C57BL/6 mice; type: in vivo; conditions: serum 2 hours after LPS; dosed once 1 hour before LPS; dexamethasone 5 mg/kg i.p., RHB-104 108 mg/kg p.o.
Protocol: This study was performed to evaluate the effects of RHB-104 (as detailed above) dosed orally at 108 mg/kg on lipopolysaccharide (LPS)-induced cytokine production in mice. The LPS-induced cytokine production model in mice is commonly used to test the ability of compounds to suppress production of pro-inflammatory cytokines TNF and IL-6 in vivo.
In this model LPS is injected into mice intraperitoneally (i.p.) or intravenously. Two hours after the LPS injection, concentrations of IL-6 and TNF reach peak levels in serum of the injected mice.
30 female C57BL/6 mice, 11 weeks old, were dosed once with RHB-104, then injected with LPS 1 hour later. 2 hours after LPS injection, mice were bled and serum was isolated. The concentration of cytokines in serum was measured. Dexamethasone administered at 5 mg/kg i.p. was used as positive control for suppression of the immune response. Dexamethasone suppresses production of pro-inflammatory cytokines TNF and IL-6 increases production of anti-inflammatory cytokine IL-10.
Serum concentrations of IL-2, IL-4, IL-6, IL-10, IL-17, IFN-γ and TNF were measured using cytokine bead analysis (CBA) Th1/Th2/Th17 kit (Becton Dickinson). Concentrations of cytokines in serum between groups were compared using 2-tailed Student's t-test.

[11] = test system: rat pancreatic tumor model, CA20948; assay: In vivo test of WX-671 in the pancreatic adenocarcinoma model CA20948; conditions: 0.3 mg/kg by intraperitoneal injection; vehicle 30.7%
Protocol: Groups of eighteen rats were inoculated with tumor by intraperitoneal injection of a tumor cell suspension, prepared from a solid tumor harvested from a donor rat.
In this model the intraperitoneally grafted cells migrate to the pancreas to form a pancreatic tumor intimately associated with the pancreas. Within 3 weeks the tumor disseminates typically to the liver to form metastatic lesions which can be counted. Treatments at dose levels of 0.03, 0.3 and 3.0 mg/kg once daily were orally applied daily from day 3 onwards.
The percentage of large liver foci was determined by dividing the number of large lesions by the number of total lesion detected on the livers.

BN472 breast cancer = assay: In vivo assay of WX-671 in the BN472 rat breast cancer model; parameters: species or system brown Norwegian rats; conditions: WX-UK1 1 mg/kg i.p. daily, 30 days
Protocol: The treatments started 72 h after tumor implantation and were repeated daily until the animals were sacrificed after 30 days. The control group (A) received 0.75 ml of the substance-free substance carrier solution consisting of 5% ethanol, 5% D-mannitol and 5% Tween 20 in water orally by gavage.
Growth of the inoculated tumors was determined in the dimensions length and width twice weekly, using a slide gauge. After the animals had been sacrificed, the therapy end points, tumor weight, weights of the axillary and intraperitoneal lymph nodes and also the number of macroscopic lung metastases were determined.

O=C(NCc1ccncc1)C12CC3CC(C1)CC(c1ccc(Cl)cc1)(C3)C2 [ABC640, 3-(4-chlorophenyl)-adamantane-1-carboxylic acid (pyridin-4-ylmethyl)amide]
Toxicity (%) ([1]; 25 μM): 0%
Toxicity (%) ([1]; 50 μM): 68%
Toxicity (%) ([2]; 25 μM): 17%
Toxicity (%) ([2]; 50 μM): 72%
Toxicity (%) ([3]; 25 μM): 11%
Toxicity (%) ([3]; 50 μM): 92%

O=C(NCc1ccncc1)C12CC3CC(C1)CC(c1ccc(Cl)cc1)(C3)C2 [ABC294640, 3-(4-chlorophenyl)-adamantane-1-carboxylic acid (pyridin-4-ylmethyl)amide]
solubility (physchem): ≥ 15000 µg/mL and 30000 µM to 40000 µM
IC50 [4]: 21 µM
IC50 [5]: 17 µM
dose with no immediate or delayed toxicity, acute toxicity ([6]; female, Swiss-Webster, ip): at least 50 mg/kg
oral dose without noticeable toxicity ([6]; po): at least 100 mg/kg
inhibition of tumor growth relative to controls ([7]; 100 mg/kg in PEG400 every-other day): 69%
decrease of tumor growth versus control animals ([7]; 100 mg/kg in PEG400 every-other day, day 16): > 70%
oral dose with antitumor activity (dose-response studies) ([7]; orally administered): ≥ 35 mg/kg

O=c1[nH]c(=O)n(C2CC(O)C(CO)O2)cc1/C=C/Br (centres unmarked) [BVDU, (E)-5-(2-bromovinyl)-2-deoxyuridine]
toxic effect, given alone (AH13r sarcoma cells): no toxic effect
cell growth in the recovery phase after discontinuation of the cytostatic (AH13r sarcoma cells; continued BVDU without MMC): greatly inhibited in their growth
formation of resistance to adriamycin ([8]; F4-6-WT, 1 μg/ml BVDU with adriamycin): prevented the formation of resistance to adriamycin
formation of resistance to adriamycin ([8]; F46-WT, 0.5 or 1 μg/ml BVDU together with staged increasing adriamycin): prevents the formation of resistance to adriamycin
concentration from which BVDU acts in a toxic manner ([8]; mouse): about 8 μg/ml
formation of resistance to adriamycin ([9]; K562-WT, 0.5 or 1 μg/ml BVDU together with staged increasing adriamycin, 6 to 8 weeks): prevents the formation of resistance to adriamycin
concentration from which BVDU acts in a toxic manner ([9]; human): about 10 μg/ml

O=C(NCc1ccncc1)C12CC3CC(C1)CC(c1ccc(Cl)cc1)(C3)C2 [Compound 62, 3-(4-Chloro-phenyl)-adamantane-1-carboxylic acid(pyridin-4-ylmethyl)-amide]
IC50 (T24 (bladder)): 39.4 ± 7.4 µM
IC50 (Hep-G2 (liver)): 6 ± 2.6 µM

C[C@@H]1C[C@H]2[C@@H]3CCC4=CC(=O)C=C[C@]4(C)[C@@]3(F)[C@@H](O)C[C@]2(C)[C@@]1(O)C(=O)CO [Dexamethasone, dexamethasone]
IL-6 (pg/mL) ± SD [10]: 1259 ± 295 pg/mL
IL-10 (pg/mL) ± SD [10]: 106 ± 66 pg/mL
TNF (pg/mL) ± SD [10]: 35 ± 10 pg/mL

CCOC(=O)N1CCN(C(=O)[C@H](Cc2cccc(C(=N)N)c2)NS(=O)(=O)c2c(C(C)C)cc(C(C)C)cc2C(C)C)CC1.Cl [UK-1]
Toxicity (%) ([1]; 5 μM): 0%
Toxicity (%) ([1]; 10 μM): 0%
Toxicity (%) ([1]; 20 μM): 14%
Toxicity (%) ([2]; 5 μM): 35%
Toxicity (%) ([2]; 10 μM): 28%
Toxicity (%) ([2]; 20 μM): 19%
Toxicity (%) ([3]; 5 μM): 33%
Toxicity (%) ([3]; 10 μM): 0%
Toxicity (%) ([3]; 20 μM): 0%

CCOC(=O)N1CCN(C(=O)[C@H](Cc2cccc(C(=N)N)c2)NS(=O)(=O)c2c(C(C)C)cc(C(C)C)cc2C(C)C)CC1 [WX-UK1, Na-(2,4,6-triisopropylphenylsulfonyl)-3-amidino-(L)-phenylalanine-4-ethoxycarbonylpiperazide]
percentage large mets (>2 mm liver lesions of total liver lesions) [11]: 13.4%
reduction of average tumor weights at the end of the treatment compared to the control (BN472 breast cancer): approx. 5%

COc1cccc2c1C(=O)c1c(O)c3c(c(O)c1C2=O)C[C@@](O)(C(=O)CO)C[C@@H]3O[C@H]1C[C@H](N)[C@H](O)[C@H](C)O1 [adriamycin]
toxic effect on non-resistant cells ([9]; K562-WT, 20 ng/ml, treatment time 4 days): severely toxic effect

CC[C@H]1OC(=O)[C@H](C)[C@@H](O[C@H]2C[C@@](C)(OC)[C@@H](O)[C@H](C)O2)[C@H](C)[C@@H](O[C@@H]2O[C@H](C)C[C@H](N(C)C)[C@H]2O)[C@](C)(OC)C[C@@H](C)C(=O)[C@H](C)[C@@H](O)[C@]1(C)O [clarithromycin, Clarithromycin]
Toxicity (%) ([1]; 100 μM): 7%
Toxicity (%) ([2]; 100 μM): 29%
Toxicity (%) ([3]; 100 μM): 0%

CC(C)/N=c1\cc2n(-c3ccc(Cl)cc3)c3ccccc3nc-2cc1Nc1ccc(Cl)cc1 [clofazimine, Clofazimine]
Toxicity (%) ([1]; 5 μM): 41%
Toxicity (%) ([2]; 5 μM): 62%
Toxicity (%) ([3]; 5 μM): 4%

CO[C@H]1/C=C/O[C@@]2(C)Oc3c(C)c(O)c4c(c3C2=O)C2=NC3(CCN(CC(C)C)CC3)NC2=C(NC(=O)/C(C)=C\C=C\[C@H](C)[C@H](O)[C@@H](C)[C@@H](O)[C@@H](C)[C@H](OC(C)=O)[C@@H]1C)C4=O [rifabutin, Rifabutin]
Toxicity (%) ([1]; 70 μM): 0%
Toxicity (%) ([2]; 70 μM): 20%
Toxicity (%) ([3]; 35 μM): 8%
